Source: ChEMBL document CHEMBL6121018, “Targeting JNK3 for Alzheimer's disease: Design and synthesis of novel inhibitors with aryl group diversity utilizing wide pocket” (Eur J Med Chem, 2025)

Columns and labels:
[1] = in vitro; conditions: Sprague-Dawley, rat, primary cortical neurons
Description: Cytotoxicity against Sprague-Dawley rat Primary cortical neuron assessed as cell viability incubated for 24 hrs by MTT assay

[2] = system: Cortical neurone; test: (§1) Neuroprotective activity against amyloid beta (1 to 42 residues)-induced Sprague-Dawley rat primary cortical neurons assessed as cell viability at 10 uM pretreated with compound for 90 mins followed by amyloid beta (1 to 42 residues) induction for 24 hrs and measured on day 5 by MTT assay (reference value: 100%); conditions: 121.5 h, read-out: Activity
[3] = target: T1, Mitogen-activated protein kinase 10 (Homo sapiens, UniProt P53779); test: Inhibition of JNK3 (unknown origin)
[4] = system: Cortical neurone; test: as §1, with “at 20” for “at 10”; assay type: functional; conditions: 121.5 h, time 7290 min, read-out: Activity
[5] = target: Glycogen synthase kinase-3 alpha (Homo sapiens, UniProt P49840); test: Inhibition of GSK3alpha (unknown origin) using 33P-ATP as substrate incubated for 2 hrs by P81 filter-binding method
[6] = target: Mitogen-activated protein kinase 9 (Homo sapiens, UniProt P45984)
Description: Inhibition of JNK2 (unknown origin) using 33P-ATP as substrate incubated for 2 hrs by P81 filter-binding method

[7] = target: Mitogen-activated protein kinase 8 (Homo sapiens, UniProt P45983)
Description: Inhibition of JNK1 (unknown origin) using 33P-ATP as substrate incubated for 2 hrs by P81 filter-binding method

[8] = target: Mitogen-activated protein kinase 14 (Homo sapiens, UniProt Q16539)
Description: Inhibition of p38alpha (unknown origin) using 33P-ATP as substrate incubated for 2 hrs by P81 filter-binding method

[9] = target: Glycogen synthase kinase-3 beta (Homo sapiens, UniProt P49841); test: Inhibition of GSK3beta (unknown origin) using 33P-ATP as substrate incubated for 2 hrs by P81 filter-binding method
[10] = target: T1, Mitogen-activated protein kinase 10; test: Inhibition of JNK3 (unknown origin) using ATF as substrate in presence of [gamma-33P]ATP incubated for 40 mins by scintillation counter analysis
[11] = in vitro; conditions: PAMPA
Description: Permeability coefficient of compound by PAMPA

[12] = in vitro; conditions: human, plasma
Description: Stability in human plasma assessed as parent compound remaining at 60 mins

[13] = in vitro; conditions: human, plasma; remark: listed apart in the source
Description: Stability in human plasma assessed as parent compound remaining at 30 mins

[14] = in vitro; conditions: human, liver microsomes

T1 sequence (P53779 whole entry): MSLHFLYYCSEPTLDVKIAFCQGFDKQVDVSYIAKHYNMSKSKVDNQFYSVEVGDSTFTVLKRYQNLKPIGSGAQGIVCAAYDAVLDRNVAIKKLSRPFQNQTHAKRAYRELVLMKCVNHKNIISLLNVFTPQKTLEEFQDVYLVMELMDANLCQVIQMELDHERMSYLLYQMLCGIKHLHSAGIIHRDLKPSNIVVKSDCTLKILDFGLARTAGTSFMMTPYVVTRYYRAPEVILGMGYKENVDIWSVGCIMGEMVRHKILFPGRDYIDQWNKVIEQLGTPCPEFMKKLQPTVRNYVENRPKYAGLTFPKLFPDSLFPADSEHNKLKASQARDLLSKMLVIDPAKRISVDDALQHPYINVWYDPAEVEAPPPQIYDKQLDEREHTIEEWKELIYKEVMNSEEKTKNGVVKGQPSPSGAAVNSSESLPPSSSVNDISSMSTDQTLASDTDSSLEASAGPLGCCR
Mitogen-activated protein kinase 9, sequence (P45984 whole entry): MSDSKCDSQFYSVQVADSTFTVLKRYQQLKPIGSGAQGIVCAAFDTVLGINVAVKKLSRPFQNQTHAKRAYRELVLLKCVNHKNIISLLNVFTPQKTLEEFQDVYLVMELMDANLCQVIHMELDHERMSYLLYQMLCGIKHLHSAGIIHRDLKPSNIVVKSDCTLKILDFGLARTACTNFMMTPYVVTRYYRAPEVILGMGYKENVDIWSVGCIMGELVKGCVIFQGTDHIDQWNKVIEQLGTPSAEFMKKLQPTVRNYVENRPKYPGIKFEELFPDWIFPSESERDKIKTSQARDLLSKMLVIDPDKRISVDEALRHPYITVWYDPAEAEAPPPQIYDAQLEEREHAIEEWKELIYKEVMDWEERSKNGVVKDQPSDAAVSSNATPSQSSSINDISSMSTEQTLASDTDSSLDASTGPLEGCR
Mitogen-activated protein kinase 14, sequence (Q16539 whole entry): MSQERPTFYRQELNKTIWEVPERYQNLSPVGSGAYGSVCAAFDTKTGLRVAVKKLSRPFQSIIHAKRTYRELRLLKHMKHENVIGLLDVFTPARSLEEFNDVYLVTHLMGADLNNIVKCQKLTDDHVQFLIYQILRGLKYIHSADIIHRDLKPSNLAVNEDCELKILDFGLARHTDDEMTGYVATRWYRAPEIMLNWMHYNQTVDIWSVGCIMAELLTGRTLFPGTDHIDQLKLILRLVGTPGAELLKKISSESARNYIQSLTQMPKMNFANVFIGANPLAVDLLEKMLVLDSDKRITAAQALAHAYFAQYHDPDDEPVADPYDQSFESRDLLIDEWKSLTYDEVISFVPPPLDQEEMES
Glycogen synthase kinase-3 alpha, sequence (P49840 whole entry): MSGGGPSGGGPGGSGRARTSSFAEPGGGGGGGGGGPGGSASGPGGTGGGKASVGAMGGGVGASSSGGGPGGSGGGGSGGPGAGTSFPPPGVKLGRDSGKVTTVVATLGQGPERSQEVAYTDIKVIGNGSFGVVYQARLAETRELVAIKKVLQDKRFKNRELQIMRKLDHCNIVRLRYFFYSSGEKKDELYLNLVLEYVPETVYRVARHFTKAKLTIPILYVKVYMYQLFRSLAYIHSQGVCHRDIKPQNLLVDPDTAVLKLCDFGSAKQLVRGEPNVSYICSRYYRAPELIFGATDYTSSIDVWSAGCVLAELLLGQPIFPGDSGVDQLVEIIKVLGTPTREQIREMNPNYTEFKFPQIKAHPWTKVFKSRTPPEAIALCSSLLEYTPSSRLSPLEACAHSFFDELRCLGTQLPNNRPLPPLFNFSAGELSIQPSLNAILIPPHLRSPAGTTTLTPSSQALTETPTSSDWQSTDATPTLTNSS
Glycogen synthase kinase-3 beta, sequence (P49841 whole entry): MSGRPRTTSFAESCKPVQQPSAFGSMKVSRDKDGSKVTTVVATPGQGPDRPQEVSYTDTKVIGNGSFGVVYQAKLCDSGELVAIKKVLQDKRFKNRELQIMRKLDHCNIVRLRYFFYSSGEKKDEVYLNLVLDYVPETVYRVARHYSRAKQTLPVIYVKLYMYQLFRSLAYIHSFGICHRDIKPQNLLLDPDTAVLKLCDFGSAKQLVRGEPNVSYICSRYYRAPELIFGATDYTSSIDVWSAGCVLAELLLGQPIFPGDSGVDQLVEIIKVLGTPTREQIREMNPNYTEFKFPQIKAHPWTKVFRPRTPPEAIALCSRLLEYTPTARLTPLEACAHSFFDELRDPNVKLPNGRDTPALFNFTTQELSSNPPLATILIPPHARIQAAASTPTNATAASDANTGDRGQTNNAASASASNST
Mitogen-activated protein kinase 8, sequence (P45983 whole entry): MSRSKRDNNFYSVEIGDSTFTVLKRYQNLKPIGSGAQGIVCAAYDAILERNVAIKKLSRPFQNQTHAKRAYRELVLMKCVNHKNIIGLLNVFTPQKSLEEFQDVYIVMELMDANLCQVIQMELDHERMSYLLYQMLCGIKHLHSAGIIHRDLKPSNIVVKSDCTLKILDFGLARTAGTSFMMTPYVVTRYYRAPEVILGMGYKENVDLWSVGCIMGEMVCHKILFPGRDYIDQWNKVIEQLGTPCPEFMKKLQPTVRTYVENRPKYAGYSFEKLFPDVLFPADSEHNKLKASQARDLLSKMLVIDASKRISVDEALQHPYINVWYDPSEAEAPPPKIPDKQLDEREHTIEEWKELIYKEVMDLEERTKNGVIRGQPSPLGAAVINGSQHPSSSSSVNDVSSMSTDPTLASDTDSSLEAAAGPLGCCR

For N#CCc1cc(-c2ccc(Cl)c(Cl)c2)n(-c2ccnc(N[C@H]3CCN(C(=O)C4CC4)C3)n2)n1, which viability at 24 h [1] is on record?
Its viability at 24 h is 103%.

What about the viability at 10 µM [2] of the same compound?
The viability at 10 µM was 14%.

What about the IC50 [3] of the same compound?
The IC50 was 0.227 µM.

Which viability at 20 µM [4] does the source give for Oc1ccc(/C=C/c2cc(O)cc(O)c2)cc1 [RESVERATROL] here?
Its viability at 20 µM is 85%.

What does the source list for NC(=O)c1nn(-c2ccnc(N[C@H]3CCCN(C(=O)C4CC4)C3)n2)cc1/C=C/c1ccccc1?
IC50 [5]: 0.035 µM; IC50 [6]: 0.45 µM; IC50 [7]: 0.08 µM; IC50 [8]: Not_active; IC50 [9]: 0.014 µM

Which IC50 [10] does the source give for CCOC(=O)c1nn(-c2ccnc(Nc3ccc(N4CCC(N(C)C)CC4)cc3)n2)cc1/C=C/c1cccc(Br)c1 here?
Its IC50 is 8.33 µM.

Which Papp [11] does the source give for CC(=O)[C@H]1CC[C@H]2[C@@H]3CCC4=CC(=O)CC[C@]4(C)[C@H]3CC[C@]12C [PROGESTERONE] here?
Its Papp is 40.7 ×10⁻⁶ cm/s.

For CCOC(=O)[C@H](CCc1ccccc1)N[C@@H](C)C(=O)N1CCC[C@H]1C(=O)O, which remaining at 1 h [12] is on record?
The remaining at 1 h was 90%.

What about the remaining at 0.5 h [13] of the same compound?
Its remaining at 0.5 h is 95%.

Which remaining at 1 h [14] does the source give for COc1ccc(CCN(C)CCCC(C#N)(c2ccc(OC)c(OC)c2)C(C)C)cc1OC (stereo not drawn) here?
The remaining at 1 h was 20.3%.

For CN1CCN(c2ccc(Nc3nccc(-n4cc(/C=C/c5ccccc5)c(C(N)=O)n4)n3)cc2)CC1, which IC50 [10] is on record?
Its IC50 is 0.276 µM.

And the viability at 24 h [1]?
The viability at 24 h was 104%.

Which IC50 [10] does the source give for CN(C)C1CCN(c2ccc(Nc3nccc(-n4cc(/C=C/c5ccccc5)c(C(N)=O)n4)n3)cc2)CC1 here?
Its IC50 is 0.096 µM.

What about the viability at 24 h [1] of the same compound?
The viability at 24 h was 102%.
